Assay results reported in ChEMBL document CHEMBL1201862, “PubChem BioAssay data set” (2004).
Calls of active or inactive are those of the source.

Experiments:
[1] = target: FAD-linked sulfhydryl oxidase ALR (Homo sapiens, UniProt P55789); test: ALR-catalysed DTT oxidation blockers – biochemical, H2O2 detection, luminescence, cherry-pick, dose response (AID 493248)
[2] = tested on: Streptococcus sp. 'group A'; test: Streptococcus pyogenes SK(-)GAS viability under kanamycin – luminescence, BacTiterGlo, confirmation, counter-screen for streptokinase expression inhibitor project, dose response (AID 1900); format: functional, organism-based
Streptokinase A = target: T1, Streptokinase A (Streptococcus pyogenes serotype M1, UniProt P10520); test: viability-normalized secreted streptokinase activity reduction – plasminogen activation absorbance, OD405, dose response (AID 1914); format: functional, Streptococcus pyogenes M1 GAS;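 further: secreted streptokinase activity via plasminogen activation per viability signal from cell pellet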
T1 sequence (P10520 whole entry): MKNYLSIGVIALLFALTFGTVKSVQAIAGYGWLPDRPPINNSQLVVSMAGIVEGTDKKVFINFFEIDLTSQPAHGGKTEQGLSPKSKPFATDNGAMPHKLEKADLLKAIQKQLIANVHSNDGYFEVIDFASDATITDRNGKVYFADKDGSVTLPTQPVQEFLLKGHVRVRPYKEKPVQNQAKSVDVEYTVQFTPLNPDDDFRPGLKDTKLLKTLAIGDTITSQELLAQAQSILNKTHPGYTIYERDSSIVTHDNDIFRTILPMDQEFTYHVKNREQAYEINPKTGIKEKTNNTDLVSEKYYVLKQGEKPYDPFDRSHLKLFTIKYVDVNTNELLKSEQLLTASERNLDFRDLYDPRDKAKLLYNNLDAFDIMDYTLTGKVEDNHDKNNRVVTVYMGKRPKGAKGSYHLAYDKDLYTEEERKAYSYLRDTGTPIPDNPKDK

[3] = microbe, parasite or virus in culture; format: functional; conditions: Mycobacterium tuberculosis
Streptococcus = test: GAS UMAA2166 growth inhibition – luminescence, BacTiterGlo, counter-screen for streptokinase expression inhibitor project, dose response (AID 1915); format: functional, organism-based;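 further: potency for reduction of bacterial viability or growth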
[4] = viability of uninfected HEp-2 cells – cell-based, HTS, cytotoxicity control for RSV inhibitor project, dose response (AID 2410); format: functional; conditions: human respiratory syncytial virus
[5] = Luminescence Cell-Based Dose Retest to Confirm Inhibitors of Cancer Stem Cells. [Related pubchem assays (depositor defined):AID2717, AID2721]; format: functional; conditions: Homo sapiens
Protein skinhead-1 = target: T2, Protein skinhead-1 (Caenorhabditis elegans, UniProt P34707); format: functional
T2 sequence (P34707 whole entry): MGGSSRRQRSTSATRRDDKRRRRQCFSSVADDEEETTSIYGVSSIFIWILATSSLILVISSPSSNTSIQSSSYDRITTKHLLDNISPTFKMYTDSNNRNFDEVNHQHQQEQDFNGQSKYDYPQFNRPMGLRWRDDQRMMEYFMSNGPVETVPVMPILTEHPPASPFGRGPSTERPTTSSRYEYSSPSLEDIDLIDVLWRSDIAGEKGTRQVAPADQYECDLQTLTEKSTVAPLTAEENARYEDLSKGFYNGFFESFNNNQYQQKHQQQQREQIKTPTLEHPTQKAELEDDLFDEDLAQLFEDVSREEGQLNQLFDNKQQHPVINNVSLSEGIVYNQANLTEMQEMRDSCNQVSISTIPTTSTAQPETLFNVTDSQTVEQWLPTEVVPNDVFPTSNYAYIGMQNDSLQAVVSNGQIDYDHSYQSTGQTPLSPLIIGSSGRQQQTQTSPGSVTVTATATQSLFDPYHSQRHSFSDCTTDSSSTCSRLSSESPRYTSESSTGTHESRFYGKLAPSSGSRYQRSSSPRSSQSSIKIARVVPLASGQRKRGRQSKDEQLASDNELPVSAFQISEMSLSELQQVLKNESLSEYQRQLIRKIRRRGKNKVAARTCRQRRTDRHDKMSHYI

H4 = test: Luminescence Cell-Based Dose Response HTS to Identify Activators of 5'UTR Stem-Loop Driven Prion Protein mRNA Translation in H4 Neuroglioblastoma Cells. [Related pubchem assays: 1829 (Project Summary), 1814 (Primary HTS)]; format: functional; conditions: Homo sapiens
[6] = NIH-3T3 fibroblast cytotoxicity, dose response, cytotoxicity control, cell-based, fluorescence, Alamar Blue, secondary assay (AID 2327); format: functional;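 further: NIH-3T3 mouse fibroblasts cultured with fluconazole at 8 µg/mL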
[7] = fluconazole-exposed Candida albicans growth modulators – fluorescence, retest, confirmation (AID 2467); format: functional, cell-based

Chain of FAD-linked sulfhydryl oxidase ALR (P55789 whole entry): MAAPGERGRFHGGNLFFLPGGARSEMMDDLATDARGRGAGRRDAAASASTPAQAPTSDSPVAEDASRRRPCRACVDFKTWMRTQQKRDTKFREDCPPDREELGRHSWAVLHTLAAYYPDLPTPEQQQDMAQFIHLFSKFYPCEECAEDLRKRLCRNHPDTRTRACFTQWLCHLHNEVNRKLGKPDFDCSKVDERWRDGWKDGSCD

## CNc1nc(N)c(C(=O)C23CC4CC(CC(C4)C2)C3)s1
[1]
  AC50: 0.437 µM (active)

## CCn1cc(-c2ccccc2)c(C(=O)O)c1-c1ccc(OC)cc1
[1]
  AC50: 5.6 µM (active)

## COc1ccc(OC)c2c(C)cc(N3CCCN(C)CC3)nc12
[1]
  AC50: 22 µM (active)

## CCCc1cc(=O)n2nc(C)c(-c3ccc(Cl)cc3)c2[nH]1
[2]
  EC50: 3.37 µM (active)
Streptokinase A
  EC50: > 150 µM (not active)
[3]
  CC50: 39.5 µM (active)
Streptococcus
  EC50: 11.3 µM (active)

## O=C(/C=C/c1ccc2c(c1)OCCCO2)c1ccc2ccccc2c1O
[4]
  CC50: 30.7 µM (active)
[5]
  AC50: 5.21 µM (active)

## COc1ccc(NC(=O)CN2CCN(Cc3ccc4c(c3)OCO4)CC2)cc1OC
Protein skinhead-1
  IC50: > 100 µM (inactive)

## Fc1ccc2nc(Nc3nc4c(s3)CCCC4)sc2c1
H4
  EC50: 0.986 µM (active)

## Cc1nc(C(F)(F)F)c(C(=O)O)cc1-c1nc(-c2ccccc2)cs1
[1]
  AC50: 11.4 µM (active)

## Nc1cc(N)nc(SCc2cccc(F)c2)n1
[6]
  EC50: > 150 µM (inactive)
[7]
  EC50: > 38 µM (not active)

## CCCCCCCNC(=O)c1ccc(N2CCC3(CC2)OCCO3)c([N+](=O)[O-])c1
[3]
  CC50: > 40 µM (active)

## O=C(O)c1ccc(-c2nc(-c3ccc(Cl)cc3)cs2)cc1
[6]
  EC50: 112 µM (active)
[7]
  EC50: 4.58 µM (active)

## Cc1nc(NC(=O)c2c(-c3ccccc3)noc2C)sc1C(=O)N(C)C
[6]
  EC50: > 160 µM (inactive)
[7]
  EC50: > 38 µM (not active)

## Clc1ccc(-c2nc(-c3cnccn3)no2)cc1
Protein skinhead-1
  IC50: 74.1 µM (inactive)

## CC1Cc2ccccc2N1C(=O)C1CCN(S(=O)(=O)Cc2ccccc2)CC1 (stereo not given)
Protein skinhead-1
  IC50: > 100 µM (inactive)

## O=C(c1cc(-c2ccccc2)on1)N1CCc2ccccc2C1
Protein skinhead-1
  IC50: > 100 µM (inactive)

## Sc1nnc(C2CCCCC2)n1/N=C/C(Cl)=C\c1ccccc1
[4]
  CC50: 15.2 µM (active)
[5]
  AC50: 5.5 µM (active)

## Clc1ccc(CSc2ncn(-c3ccccc3)n2)cc1
Protein skinhead-1
  IC50: 10.3 µM (active)

## CCOC1OC(O)=C(Cl)/C1=N\c1cc(C)ccc1C (stereo not given)
[4]
  CC50: 29.2 µM (active)

## Cn1c(/C=N/Nc2nc3ccccc3[nH]2)nc2ccccc21
[6]
  EC50: 35.5 µM (active)
[7]
  EC50: > 38 µM (not active)
[3]
  CC50: > 40 µM (active)

## Brc1cccc(OCCSc2ncccn2)c1
Protein skinhead-1
  IC50: 63.6 µM (inactive)
